Measured values published in patent US10220053B2, “Methods and compositions for modulating cancer stem cells” (University of Canberra, priority 2013, dated 2019).
Entries after “also recorded” stand apart in the source; their conditions may differ.

How the values were obtained:
MDA-MB 231 cells [1] = assay: FACS analysis of CD44high CD24low CSC subpopulation, Basal/metastatic model; format: cell-based, human; conditions: NCD38 5 μM, FIGS. 7A and B
Method: Cells from each well/flask were harvested by means of trypsin treatment followed by two washes with PBS. Washed cells then re-suspended in an antibody cocktail consisting anti-CD44-APC, anti-CD24-PE antibodies (details in Table 5) and Hoechst 33258 dye (final dilution of 1:1000) (Invitrogen, Carlsbad, Calif.) in 1% FCS-PBS solution. Cells re-suspended in antibody cocktail were incubated for 20 minutes at 4° C. Cells were next washed twice with PBS and re-suspended in 1% FCS-PBS solution (volume based on cell number) and kept on ice until analyzed by FACS. Forward scatter (FSC) and side scatter parameters were selected with FITC fluorochrome excited by 488 nm argonion laser, PE fluorochrome excited by 488 nm and Hoechst fluorochrome excited by 350 nm helium-cadmium UV laser.
Flow Cytometry data was produced using either BD FACS LSR Flow Cytometer (Becton Dickinson Biosciences) or BD FACS Aria™ II Flow Cytometer (Becton Dickinson Biosciences) and analyzed using the data acquisition software CellQuest Pro (Becton Dickinson Biosciences) and FlowJo (Tree Star Inc., Ashland, Oreg.) software at the MCRF facility, JCSMR, ANU, Canberra, Australia. Single colour controls were used to set compensation parameters. Isotype controls were used for all corresponding primary antibodies in each experiment. […]

MCF-7 cells [2] = assay: FACS analysis of CD44high CD24low CSC-like subpopulation, MCF-IM model (PMA-stimulated MCF-7); format: cell-based, human; conditions: NCD38 5 μM for 17 hr prior to PMA 0.65 ng/μl for 60 hours, FIGS. 6A and B
Method: MCF-7 cells were seeded one day before stimulation at a set density according to the experimental demand. Potential inducers of EMT were tested including Phorbol 12-Myristate 13-acetate (PMA) (Sigma-Aldrich, St. Louis, Mo.), and TGF β (R&D systems, Minneapolis, Minn.) at various concentrations and incubation length as specified in Table 6.
Cells from each well/flask were harvested by means of trypsin treatment followed by two washes with PBS. Washed cells then re-suspended in an antibody cocktail consisting anti-CD44-APC, anti-CD24-PE antibodies (details in Table 5) and Hoechst 33258 dye (final dilution of 1:1000) (Invitrogen, Carlsbad, Calif.) in 1% FCS-PBS solution. Cells re-suspended in antibody cocktail were incubated for 20 minutes at 4° C. Cells were next washed twice with PBS and re-suspended in 1% FCS-PBS solution (volume based on cell number) and kept on ice until analyzed by FACS. […]
Flow Cytometry data was produced using either BD FACS LSR Flow Cytometer (Becton Dickinson Biosciences) or BD FACS Aria™ II Flow Cytometer (Becton Dickinson Biosciences) and analyzed using the data acquisition software CellQuest Pro (Becton Dickinson Biosciences) and FlowJo (Tree Star Inc., Ashland, Oreg.) software at the MCRF facility, JCSMR, ANU, Canberra, Australia. […]

MCF-7 cells [3] = assay: Mammosphere assay; format: cell-based, human; conditions: MCF-IM model, NCD38 5 μM for 17 hr prior to PMA 0.65 ng/ml for 6 days, mammospheres larger than 60 μm counted
Method: The following mammosphere culture media components were purchased from StemCell Technologies Inc., BC, Canada: Mammocult Basal medium (Human) (catalogue number-05621), Mammocult Proliferation Supplements (Human) (catalogue number-05622), heparin (catalogue number-07904) and hydrocortisone (catalogue number-[…]). Hydrocortisone powder was freshly dissolved into mammocult basal medium to get 10^−4M solution on the day of experiment. 50 mL of Mammocult complete media was then prepared by addition of 45 mL Mammocult basal medium, 5 mL mammocult proliferation supplements, 100 μL of the 0.2% heparin stock, 500 μL of 10^−4M stock of hydrocortisone and 50 μL of the PNS. Mammocult complete media was either used on same day or stored for not more than 7 days at 4° C.
MCF-7 cells were grown in a 175 cm^2 cell culture flask and harvested using a cell scraper (Zellschaber, Switzerland) or FACS sorted as specified below. Importantly trypsin treatment was never used for harvesting cells as it interferes with the mammosphere assay. Harvested cells were then re-suspended in 1 mL mammocult complete media and centrifuged at 500×g for 3 minutes at 20° C. The cell pellet was then re-suspended in 1 mL mammocult complete media before counting the cells on the Vi-CELL counter. […] Mammospheres larger than 60 μm were counted per well on day 7 and pictures were taken with an Olympus microscope. […]

MDA-MB 231 cells [4] = assay: Phase contrast microscopy of EMT/MET, Basal/metastatic model; format: cell-based, human; conditions: NCD38 5 μM, FIG. 7C
Method: Phase contrast microscopy was utilized for EMT and wound healing assays under 10× or 20× magnification of Olympus Fluorescence 1×71 microscope. Images were captured and analyzed as described above except that wound healing assay pictures were also analyzed by Image J software (Free software in Public domain developed by NIH).

MDA-MB-231 cells [5] = assay: In vivo murine xenograft model, tumor size; design: species or system BALB/c female nude mice
Method: (§1) To monitor the effect of LSD1 inhibitors in vivo on tumor recurrence, in vivo murine xenograft model of breast cancer recurrence was used. The MDA-MB 231 cell line model, which is one of the most robust and well-established models was used in 6 weeks old BALB/c female nude mice. 5×10^6 MDA MB 231 cells were injected in the mammary fat pad of each mouse. […] Once the tumors reach 50 mm^3 volume size (determined by caliper measurement), treatments were initiated. Mice were monitored until tumors reach 500 mm^3 and sacrificed for collection of tumors. Each treatment group consisted 14 mice each (5 mice for tumor growth curve+3 mice each for tumor collection at 3 time points-treatment start day-week 0, chemotherapy tumor reduction-approx. week 4 and until tumor reach 500 mm^3 approx. week 7). Tumor volumes were measured every week and three mice from each group were sacrificed for IHC, FACS, and RNA extraction at above mentioned three time points.
5. Mice were then injected with 50 μL of the Matrigel™+5×10^6 cell suspension in PBS using 26″ needles and isoflurane as an anesthetic. Each 50 μL of the mixture contains 2×10^6 MDA-MB-231 cells.
7. Measurements for tumor volume began at day 7 post injection of MDA-MB-231. Then the tumor volumes were measured daily till 15 May 2014.
Treatment of mice started at day 16 post injection of MDA-MB-231, where tumors roughly reached a volume of 50 mm^3.
Group B: 4 mg/kg of docetaxel (11 mice)
Group C: 100 mg/kg of pargyline (11 mice)
Group D: 4 mg/kg of docetaxel+100 mg/kg of pargyline (11 mice)

MDA-MB-231 cells [6] = assay: In vivo murine xenograft model, CSC subpopulation of tumors (FACS, CD44 mRNA); design: species or system BALB/c female nude mice; conditions: pargyline along with docetaxel
Method: as §1
At week 7 post treatment, the remaining tumor samples were collected for flow cytometry with CD44, CD24 and Hoechst staining. Remaining sample was used for RNA extraction.
1. Tumors were collected in 5 mL of DMEM supplemented with 2.5% FCS in 15 mL tubes.
8. A total number of 2×10^5 cells were stained for CD44-APC, CD24-PE and Hoechst. […]

SMILES	CSC formation (CD44high CD24low CSC-like subpopulation) by FACS (MDA-MB 231 cells [1])	CSC formation (CD44high CD24low CSC-like subpopulation) by FACS (MDA-MB 231 cells [1]; listed as NCD-38)	CSC formation (CD44high CD24low CSC-like subpopulation) monitored by FACS (MCF-7 cells [2])	CSC formation (CD44high CD24low CSC-like subpopulation) monitored by FACS (MCF-7 cells [2]; listed as NCD-38)	CSC formation monitored by mammosphere assay (MCF-7 cells [3])	CSC formation monitored by mammosphere assay (MCF-7 cells [3]; listed as NCD-38)	mesenchymal to epithelial transition / EMT (phase contrast microscopy) (MDA-MB 231 cells [4])	mesenchymal to epithelial transition / EMT (phase contrast microscopy) (MDA-MB 231 cells [4]; listed as NCD-38)	tumor size (MDA-MB-231 cells [5]; pargyline 100 mg/kg in combination with docetaxel 4 mg/kg, mice xenograft, FIG. 8 (week four), FIG. 9)	tumor volume (MDA-MB-231 cells [5]; pargyline in combination with docetaxel, after seven weeks of treatment initiation, FIG. 9B)	tumor weight (MDA-MB-231 cells [5]; pargyline in combination with docetaxel, after seven weeks of treatment, FIG. 9A)	CSC subpopulation measured by transcript (CD44 mRNA expression of dissected tumors) (MDA-MB-231 cells [6]; real-time PCR, FIG. 10B)	CSC subpopulation of tumors measured by FACS (MDA-MB-231 cells [6]; seven weeks of treatment, FIG. 10A)
O=C(N[C@@H](CCCCN[C@@H]1C[C@H]1c1ccccc1)C(=O)NCc1cccc(Cl)c1)c1ccc(-c2ccccc2)cc1.O=C(O)C(F)(F)F [NCD38]	inhibits CD44 high CD24 low-CSC-like subpopulation	decrease of CSC formation	inhibits CD44 high CD24 low-CSC-like subpopulation	inhibition CSC formation	reduce mammosphere formation	inhibition CSC formation	inhibit EMT	conversion of mesenchymal cells in to epithelial cells					
C#CCN(C)Cc1ccccc1 [pargyline]									reduced tumor size; also recorded: reduces size of tumor	reduces volume and weight of tumor	reduces volume and weight of tumor	reduced CSC subpopulation	reduced CSC subpopulation; also recorded: reduces cancer stem cells
